Reference: patent US9925251B2, “Treatments for Mycobacterium tuberculosis” (priority 2011, dated 2018)
“Also recorded” adds a separate entry of the source. Like-named read-outs stand apart in the source and are kept apart here. Starred links: 1 amine or outer side, 2 acyl side, 3 side chain; linkers in the order of their positions; H or OH if unused. Non-standard residues stand in square brackets, D forms with d. No end group written: not given here. *: point of attachment. Dpa(Dnp) = O=C([C@H](CNc1ccc([N+](=O)[O-])cc1[N+](=O)[O-])N[*:1])[*:2]; Mca = COc1ccc2c(CC(=O)*)cc(=O)oc2c1; Suc = O=C(CCC(=O)[*:2])[*:1]; Nle = CCCC[C@H](N)C(=O)O; Cbz = O=C(OCc1ccccc1)*; amc = not defined here

How the values were obtained:
Mtb ClpP1P2 [1] = target: T1, Mtb ClpP1P2 (Mycobacterium tuberculosis, UniProt P9WPC3+P9WPC5); assay type: biochemical; details: for cleavage by ClpP1P2 (in words): activator present
Mtb ClpP1P2 [2] = target: T1, Mtb ClpP1P2; assay: biochemical; assay type: biochemical
ClpC1 ATPase = ClpC1 ATPase (Mycobacterium tuberculosis, UniProt P9WPC9); assay type: biochemical
ClpC1 ATPase, sequence (P9WPC9 whole entry): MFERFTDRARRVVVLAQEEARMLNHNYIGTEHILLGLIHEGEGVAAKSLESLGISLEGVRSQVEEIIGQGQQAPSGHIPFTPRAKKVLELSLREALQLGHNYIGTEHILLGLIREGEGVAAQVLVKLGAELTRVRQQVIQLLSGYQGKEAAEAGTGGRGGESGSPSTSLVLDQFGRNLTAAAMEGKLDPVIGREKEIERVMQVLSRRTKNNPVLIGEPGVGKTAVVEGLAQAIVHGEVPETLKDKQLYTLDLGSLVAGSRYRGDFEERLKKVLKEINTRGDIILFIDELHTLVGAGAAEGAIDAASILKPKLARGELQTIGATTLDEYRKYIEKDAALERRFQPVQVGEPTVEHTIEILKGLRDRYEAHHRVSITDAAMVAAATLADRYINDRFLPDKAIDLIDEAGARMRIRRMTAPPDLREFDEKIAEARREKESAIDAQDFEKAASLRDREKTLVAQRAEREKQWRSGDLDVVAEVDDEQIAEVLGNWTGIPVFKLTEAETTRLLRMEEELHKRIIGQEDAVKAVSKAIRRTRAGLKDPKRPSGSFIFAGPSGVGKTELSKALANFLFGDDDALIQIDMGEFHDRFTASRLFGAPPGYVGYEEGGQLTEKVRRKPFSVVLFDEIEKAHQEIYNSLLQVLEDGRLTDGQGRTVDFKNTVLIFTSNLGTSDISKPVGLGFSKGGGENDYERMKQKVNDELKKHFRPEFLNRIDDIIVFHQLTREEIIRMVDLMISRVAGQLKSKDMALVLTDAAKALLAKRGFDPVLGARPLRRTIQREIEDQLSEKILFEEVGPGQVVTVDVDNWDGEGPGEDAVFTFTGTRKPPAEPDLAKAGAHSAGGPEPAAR

Msm ptet_clpP2 = assay type: cell-based, Mycobacterium smegmatis; details: for growth of strain: sub-MIC concentration
Mtb ClpP1P2 [3] = target: T1, Mtb ClpP1P2; assay type: biochemical
Mtb ClpP1P2 [4] = target: T1, Mtb ClpP1P2; assay type: biochemical; details: 10 best substrates each with Met, Leu, Phe, Ala at P1; library screening
[5] = Peptide Aldehydes (0.5 mM), peptidase activity with Z-Gly-Gly-Leu-amc, maximal activation by Z-Leu-Nle-aldehyde taken as 100%
[6] = Peptide Derivatives (1 mM), peptidase activity with Z-Gly-Gly-Leu-amc, Z-Leu-Leu-aldehyde 100.0
[7] = low concentration of ATc (ClpP2 partially depleted)
[8] = substance is the substrate, Z-Gly-Gly-Leu-amc = 100

Cc1cc(=O)oc2cc(NC(=O)C(C)N)ccc12 (stereo not drawn) [Ala-amc]
RELATIVE RATES OF HYDROLYSIS (%) (Mtb ClpP1P2 [1]): 0.78%

Cc1cc(=O)oc2cc(NC(=O)[C@@H](N)CC(C)C)ccc12 [Leu-amc]
RELATIVE RATES OF HYDROLYSIS (%) (Mtb ClpP1P2 [1]): 0.36%

Cc1cc(=O)oc2cc(NC(=O)C(N)Cc3ccccc3)ccc12 (stereo not drawn) [Phe-amc]
RELATIVE RATES OF HYDROLYSIS (%) (Mtb ClpP1P2 [1]): 0.26%

CC(C)C[C@@H](C=O)NC(=O)[C@H](CC(C)C)NC(=O)OCc1ccccc1 [Z-Leu-Leu-aldehyde]
Kd (Mtb ClpP1P2 [2]): 240 µM
RELATIVE ACTIVITY (%) (Mtb ClpP1P2 [2]; [5]): 77.6%
RELATIVE ACTIVITY (%) (Mtb ClpP1P2 [2]; [6]): 100.0%
stimulation of ClpP1P2 activity (in words) (Mtb ClpP1P2 [2]; against Z-Gly-Gly-Leu-AMC): strongest stimulation

CC(C)C[C@H](NC(=O)[C@H](CC(C)C)NC(=O)OCc1ccccc1)C(=O)O [Z-Leu-Leu]
Kd (Mtb ClpP1P2 [2]): 2200 µM
RELATIVE ACTIVITY (%) (Mtb ClpP1P2 [2]; Active enzyme diluted (200x) without activator, then activator re-added): 96.0%
RELATIVE ACTIVITY (%) (Mtb ClpP1P2 [2]; Active enzyme diluted (200x), with activator): 100.0%
RELATIVE ACTIVITY (%) (Mtb ClpP1P2 [2]; Active enzyme diluted (200x), without activator): 1.2%
RELATIVE ACTIVITY (%) (Mtb ClpP1P2 [2]; [6]): 18.5%
stimulation of ClpP1P2 activity (in words) (Mtb ClpP1P2 [2]; against Z-Gly-Gly-Leu-AMC): could also activate ClpP1P2
effect on ClpC1 ATPase activity (in words) (ClpC1 ATPase): did not influence

CC(C)C[C@@H](CO)NC(=O)OCc1ccccc1 [Z-Leu-alcohol]
RELATIVE ACTIVITY (%) (Mtb ClpP1P2 [2]): 2.4%

CC(C)C[C@H](NC(=O)OCc1ccccc1)C(=O)O [Z-Leu]
RELATIVE ACTIVITY (%) (Mtb ClpP1P2 [2]): 5.3%
stimulation of ClpP1P2 activity (in words) (Mtb ClpP1P2 [2]): much smaller stimulation

NCC[C@H](O)C(=O)N[C@@H]1C[C@H](N)[C@@H](O[C@H]2O[C@H](CN)[C@@H](O)[C@H](O)[C@H]2O)[C@H](O)[C@H]1O[C@H]1O[C@H](CO)[C@@H](O)[C@H](N)[C@H]1O [amikacin]
growth of strain (Msm ptet_clpP2; high concentration of ATc): no effect on growth
growth of strain (Msm ptet_clpP2; [7]): significantly inhibited the growth

O=C(N[C@H](CO)[C@H](O)c1ccc([N+](=O)[O-])cc1)C(Cl)Cl [chloramphenicol]
viability, low versus high ATc (Msm ptet_clpP2; sublethal concentration): no difference in viability

O=c1oc(Cl)c(Cl)c2ccccc12 [dichloroisocoumarin]
inhibition of ClpP1P2 activity (in words) (Mtb ClpP1P2 [3]): sensitive; also recorded: completely inhibit

Oc1c(Cl)cc(Cl)c(Cl)c1Cc1c(O)c(Cl)cc(Cl)c1Cl [hexachlorophene]
effect on ClpC1 ATPase activity (in words) (ClpC1 ATPase): inhibits
concentration at which the inhibitor works (ClpC1 ATPase; inhibition of ClpC1 ATPase activity): 5 to 10 mM

[H]/N=C(/N)N[C@H]1[C@H](O)[C@@H](O)[C@H](O[C@@H]2O[C@@H](C)[C@](O)(C=O)[C@H]2O[C@@H]2O[C@@H](CO)[C@H](O)[C@@H](O)[C@@H]2NC)[C@@H](N/C(N)=N\[H])[C@@H]1O [streptomycin]
growth of strain (Msm ptet_clpP2; high concentration of ATc): no effect on growth
growth of strain (Msm ptet_clpP2; [7]): significantly inhibited the growth

Ac-Nle-Pro-Nle-Asp-amc
RELATIVE RATES OF HYDROLYSIS (%) (Mtb ClpP1P2 [1]; [8]): 36.0%

Ala-Ala-Phe-amc
RELATIVE RATES OF HYDROLYSIS (%) (Mtb ClpP1P2 [1]; [8]): 87.0%

Asp-amc
RELATIVE RATES OF HYDROLYSIS (%) (Mtb ClpP1P2 [1]): 0.1%

Cbz-AP[Nle]D-aldehyde
RELATIVE ACTIVITY (%) (Mtb ClpP1P2 [2]; [5]): 0.8%

Cbz-Gly-Gly-Leu
RELATIVE ACTIVITY (%) (Mtb ClpP1P2 [2]; [6]): 3.7%

Cbz-Gly-Leu-Leu
stimulation of ClpP1P2 activity (in words) (Mtb ClpP1P2 [2]; against Z-Gly-Gly-Leu-AMC): much smaller stimulation

Cbz-Phe-Tyr-aldehyde
RELATIVE ACTIVITY (%) (Mtb ClpP1P2 [2]; [5]): 1.3%

Cbz-Val-Phe-aldehyde
RELATIVE ACTIVITY (%) (Mtb ClpP1P2 [2]; [5]): 1.9%
stimulation of ClpP1P2 activity (in words) (Mtb ClpP1P2 [2]; against Z-Gly-Gly-Leu-AMC): did not show any stimulatory capacity

Mca-GHQQYAMK-Dpa(Dnp)-amide (Mca-GHQQYAMK[Dpa(Dnp)]-NH2)
cleavage by ClpP1P2 (in words) (Mtb ClpP1P2 [1]; substance is the substrate): could cleave

Mca-GNQQYKMK-Dpa(Dnp)-amide (Mca-GNQQYKMK[Dpa(Dnp)]-NH2)
cleavage by ClpP1P2 (in words) (Mtb ClpP1P2 [1]; substance is the substrate): could cleave

Mca-GNTQFKRR-Dpa(Dnp)-amide (Mca-GNTQFKRR[Dpa(Dnp)]-NH2)
cleavage by ClpP1P2 (in words) (Mtb ClpP1P2 [1]; substance is the substrate): could cleave

Mca-KKPTPIQLN-Dpa(Dnp)-amide (Mca-KKPTPIQLN[Dpa(Dnp)]-NH2)
cleavage by ClpP1P2 (in words) (Mtb ClpP1P2 [1]; substance is the substrate): could cleave

N-acetyl-Pro-Lys-Met-aminomethylcoumarin [PKM]
Norm RFU (Mtb ClpP1P2 [4]): 1497

Suc-Ala-Ala-Phe-amc
RELATIVE RATES OF HYDROLYSIS (%) (Mtb ClpP1P2 [1]; [8]): 42.0%

Suc-Ala-Ala-Pro-Ala-amc (Suc-AAPA-amc; reading uncertain)
RELATIVE RATES OF HYDROLYSIS (%) (Mtb ClpP1P2 [1]; [8]): 0.08%

Suc-Ala-Leu-Pro-Phe-amc (Suc-ALPF-amc; reading uncertain)
RELATIVE RATES OF HYDROLYSIS (%) (Mtb ClpP1P2 [1]; [8]): 0.12%

Suc-Leu-Leu-Val-Tyr-amc (Suc-LLVY-amc; reading uncertain)
RELATIVE RATES OF HYDROLYSIS (%) (Mtb ClpP1P2 [1]; [8]): 0.8%

Suc-Leu-Tyr-amc
RELATIVE RATES OF HYDROLYSIS (%) (Mtb ClpP1P2 [1]; [8]): 11.5%

Z-Ala-Ala-Ala-amc
RELATIVE RATES OF HYDROLYSIS (%) (Mtb ClpP1P2 [1]; [8]): 3.6%

Z-Gly-Gly-Arg-amc
RELATIVE RATES OF HYDROLYSIS (%) (Mtb ClpP1P2 [1]; [8]): 0.55%

Z-Gly-Gly-Leu-amc
RELATIVE RATES OF HYDROLYSIS (%) (Mtb ClpP1P2 [1]; [8]): 100.0%

Z-Gly-Leu
RELATIVE ACTIVITY (%) (Mtb ClpP1P2 [2]; [6]): 4.8%
stimulation of ClpP1P2 activity (in words) (Mtb ClpP1P2 [2]; against Z-Gly-Gly-Leu-AMC): much smaller stimulation

Z-Leu-Leu-Arg-amc
RELATIVE RATES OF HYDROLYSIS (%) (Mtb ClpP1P2 [1]; [8]): 0.25%

Z-Leu-Leu-Glu-amc
RELATIVE RATES OF HYDROLYSIS (%) (Mtb ClpP1P2 [1]; [8]): 0.35%

Z-Leu-Leu-Leu-amc
RELATIVE RATES OF HYDROLYSIS (%) (Mtb ClpP1P2 [1]; [8]): 0.15%

Z-Leu-Leu-alcohol
RELATIVE ACTIVITY (%) (Mtb ClpP1P2 [2]; [6]): 17.6%
stimulation of ClpP1P2 activity (in words) (Mtb ClpP1P2 [2]; against Z-Gly-Gly-Leu-AMC): could also activate ClpP1P2

Z-Leu-Leu-amc
RELATIVE RATES OF HYDROLYSIS (%) (Mtb ClpP1P2 [1]; [8]): 4.7%

Z-Leu-Leu-leucinal
stimulation of ClpP1P2 activity (in words) (Mtb ClpP1P2 [2]; against Z-Gly-Gly-Leu-AMC): significantly less active

Z-Leu-Nle-aldehyde
RELATIVE ACTIVITY (%) (Mtb ClpP1P2 [2]; [5]): 100.0%

Z-Phe-Val-Arg-amc
RELATIVE RATES OF HYDROLYSIS (%) (Mtb ClpP1P2 [1]; [8]): 0.18%

Z-Pro-Nlee-Asp-aldehyde
RELATIVE ACTIVITY (%) (Mtb ClpP1P2 [2]; [5]): 1.2%
stimulation of ClpP1P2 activity (in words) (Mtb ClpP1P2 [2]; against Z-Gly-Gly-Leu-AMC): did not show any stimulatory capacity
